Data: ChEMBL document CHEMBL5241107, “Discovery of an eIF4A Inhibitor with a Novel Mechanism of Action” (J Med Chem, 2021)
Active and inactive are the calls of the source. The rule behind the calls is not given here.

How the values were obtained:
[1] = molecular target: T1, Eukaryotic initiation factor 4A-I (Homo sapiens, UniProt P60842); test: Binding affinity to human recombinant N-terminal His6-tagged eIF4A expressed in Escherichia coli BL21 CodonPlus cells assessed as increase in melting temperature at 3.13 to 50 uM incubated for 5 mins by differential scanning fluorimetry; settings: dose 3.13-50 µM
T1 sequence (P60842 whole entry): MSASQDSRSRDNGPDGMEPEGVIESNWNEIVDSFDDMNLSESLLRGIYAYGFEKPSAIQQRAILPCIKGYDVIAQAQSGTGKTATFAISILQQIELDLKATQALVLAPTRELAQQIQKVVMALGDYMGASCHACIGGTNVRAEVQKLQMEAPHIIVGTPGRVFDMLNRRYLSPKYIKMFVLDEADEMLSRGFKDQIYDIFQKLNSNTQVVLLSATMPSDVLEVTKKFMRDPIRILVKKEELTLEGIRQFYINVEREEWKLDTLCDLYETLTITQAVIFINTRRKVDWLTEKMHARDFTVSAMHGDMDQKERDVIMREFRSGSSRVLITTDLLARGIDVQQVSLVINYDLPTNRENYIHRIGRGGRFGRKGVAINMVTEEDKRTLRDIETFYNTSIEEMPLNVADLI

Reticulocyte [2] = test: Inhibition of eIF4A in rabbit reticulocyte lysate assessed as inhibition of cap-dependent translation of firefly luciferase using bicistronic luciferase reporter [pSP/(CAG)33/FF/HCV/Ren.pA51] incubated for 90 mins by luciferase reporter gene based luminescence analysis; type: subcellular; settings: Oryctolagus cuniculus
[3] = tested on: Eukaryotic initiation factor 4A-I (Homo sapiens), P60842 [R110K]; test: Inhibition of human recombinant N-terminal His6-tagged eIF4A R110K mutant expressed in Escherichia coli BL21 CodonPlus cells using ATP and yeast RNA as substrate preincubated with enzyme for 20 mins followed by susbtrate addition and measured after 4 hrs by Malachite green ATPase assay; settings: time 260.0 min
Eukaryotic initiation factor 4A-I (Homo sapiens), P60842 [R110K], sequence (P60842 whole entry R110K): as the sequence (P60842 whole entry) above, with R110K counted along it

[4] = molecular target: T1, Eukaryotic initiation factor 4A-I; test: Binding affinity to eIF4A in human A549 cells assessed as increase in thermal stability of the protein incubated for 90 mins by CETSA analysis; type: cell-based; settings: dose 0.041-10 µM
[5] = molecular target: T1, Eukaryotic initiation factor 4A-I; test: Inhibition of helicase activity of human recombinant N-terminal His6-tagged eIF4A expressed in Escherichia coli BL21 CodonPlus cells assessed as increase in double stranded signal using Cy3-labeled RNA strand and unlabeled DNA strand by native PAGE analysis
[6] = molecular target: T1, Eukaryotic initiation factor 4A-I; test: Uncompetitive inhibition of human recombinant N-terminal His6-tagged eIF4A expressed in Escherichia coli BL21 CodonPlus cells assessed as decrease in Km and Vmax of ATP using varying concentrations of ATP and 250 ug/ml yeast RNA as substrate preincubated with enzyme for 20 mins followed by substrate addition and measured after 1 to 7 hrs by Malachite green ATPase assay; settings: time 80-440 min
[7] = molecular target: T1, Eukaryotic initiation factor 4A-I; test: Inhibition of helicase activity of human recombinant N-terminal His6-tagged eIF4A expressed in Escherichia coli BL21 CodonPlus cells using Cy3-labeled RNA strand and unlabeled DNA strand by native PAGE analysis
[8] = molecular target: Eukaryotic initiation factor 4A-I (Homo sapiens, UniProt P60842, T158V); test: Inhibition of human recombinant N-terminal His6-tagged eIF4A T158V mutant expressed in Escherichia coli BL21 CodonPlus cells using ATP and yeast RNA as substrate preincubated with enzyme for 20 mins followed by susbtrate addition and measured after 4 hrs by Malachite green ATPase assay
Eukaryotic initiation factor 4A-I (Homo sapiens, UniProt P60842, T158V), sequence (P60842 2-406 T158V limits assumed): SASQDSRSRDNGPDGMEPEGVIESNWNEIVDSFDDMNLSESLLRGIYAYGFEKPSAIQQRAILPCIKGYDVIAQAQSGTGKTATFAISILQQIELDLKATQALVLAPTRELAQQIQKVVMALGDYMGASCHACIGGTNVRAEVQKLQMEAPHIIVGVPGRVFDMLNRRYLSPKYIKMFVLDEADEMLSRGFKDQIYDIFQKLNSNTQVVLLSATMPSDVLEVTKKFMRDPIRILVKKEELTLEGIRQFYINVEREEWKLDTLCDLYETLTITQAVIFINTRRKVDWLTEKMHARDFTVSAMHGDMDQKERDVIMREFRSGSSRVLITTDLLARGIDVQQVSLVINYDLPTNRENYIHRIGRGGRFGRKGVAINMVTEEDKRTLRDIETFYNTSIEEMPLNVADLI

[9] = molecular target: Eukaryotic initiation factor 4A-I (Homo sapiens, UniProt P60842, T158A); test: Inhibition of human recombinant N-terminal His6-tagged eIF4A T158A mutant expressed in Escherichia coli BL21 CodonPlus cells using ATP and yeast RNA as substrate preincubated with enzyme for 20 mins followed by susbtrate addition and measured after 4 hrs by Malachite green ATPase assay
Eukaryotic initiation factor 4A-I (Homo sapiens, UniProt P60842, T158A), sequence (P60842 2-406 T158A limits assumed): as the sequence (P60842 2-406 T158V limits assumed) above, with V157A counted along it

[10] = molecular target: Eukaryotic initiation factor 4A-I (Homo sapiens, UniProt P60842, R311E); test: Inhibition of human recombinant N-terminal His6-tagged eIF4A R311E mutant expressed in Escherichia coli BL21 CodonPlus cells using ATP and yeast RNA as substrate preincubated with enzyme for 20 mins followed by susbtrate addition and measured after 4 hrs by Malachite green ATPase assay
Eukaryotic initiation factor 4A-I (Homo sapiens, UniProt P60842, R311E), sequence (P60842 2-406 R311E limits assumed): as the sequence (P60842 2-406 T158V limits assumed) above, with V157T, R310E counted along it

[11] = molecular target: T1, Eukaryotic initiation factor 4A-I; test: Displacement of MANT-ATP from human recombinant N-terminal His6-tagged eIF4A expressed in Escherichia coli BL21 CodonPlus cells at 200 uM preincubated with enzyme and yeast RNA for 20 mins followed by MANT-ATP addition for 30 mins by fluorescence polarization assay; settings: time 50.0 min
[12] = molecular target: Eukaryotic initiation factor 4A-I (Homo sapiens, UniProt P60842, R110M); test: Inhibition of human recombinant N-terminal His6-tagged eIF4A R110M mutant expressed in Escherichia coli BL21 CodonPlus cells using ATP and yeast RNA as substrate preincubated with enzyme for 20 mins followed by susbtrate addition and measured after 4 hrs by Malachite green ATPase assay
Eukaryotic initiation factor 4A-I (Homo sapiens, UniProt P60842, R110M), sequence (P60842 2-406 R110M limits assumed): as the sequence (P60842 2-406 T158V limits assumed) above, with R109M, V157T counted along it

[13] = molecular target: Eukaryotic initiation factor 4A-I (Homo sapiens, UniProt P60842, R311K); test: Inhibition of human recombinant N-terminal His6-tagged eIF4A R311K mutant expressed in Escherichia coli BL21 CodonPlus cells using ATP and yeast RNA as substrate preincubated with enzyme for 20 mins followed by susbtrate addition and measured after 4 hrs by Malachite green ATPase assay
Eukaryotic initiation factor 4A-I (Homo sapiens, UniProt P60842, R311K), sequence (P60842 2-406 R311K limits assumed): as the sequence (P60842 2-406 T158V limits assumed) above, with V157T, R310K counted along it

Reticulocyte [14] = test: Inhibition of IRES-dependent translation of renilla luciferase in rabbit reticulocyte lysates using bicistronic luciferase reporter [pSP/(CAG)33/FF/HCV/Ren.pA51] incubated for 90 mins by luciferase reporter gene based luminescence analysis; type: functional, subcellular; settings: Oryctolagus cuniculus
[15] = molecular target: Eukaryotic initiation factor 4A-I (Homo sapiens, UniProt P60842, R110L); test: Inhibition of human recombinant N-terminal His6-tagged eIF4A R110L mutant expressed in Escherichia coli BL21 CodonPlus cells using ATP and yeast RNA as substrate preincubated with enzyme for 20 mins followed by susbtrate addition and measured after 4 hrs by Malachite green ATPase assay
Eukaryotic initiation factor 4A-I (Homo sapiens, UniProt P60842, R110L), sequence (P60842 2-406 R110L limits assumed): as the sequence (P60842 2-406 T158V limits assumed) above, with R109L, V157T counted along it

[16] = molecular target: T1, Eukaryotic initiation factor 4A-I; test: Inhibition of helicase activity of human recombinant N-terminal His6-tagged eIF4A expressed in Escherichia coli BL21 CodonPlus cells assessed as decrease in single stranded signal using Cy3-labeled RNA strand and unlabeled DNA strand by native PAGE analysis
BJAB = test: Cytotoxicity against human BJAB cells assessed as reduction in cell viability measured after 72 hrs by CellTiter-Glo luminescent assay; type: functional, cell-based; settings: Homo sapiens, BJAB, 72 h; read-out: EC50
[17] = molecular target: T1, Eukaryotic initiation factor 4A-I; test: Competitive inhibition of human recombinant N-terminal His6-tagged eIF4A expressed in Escherichia coli BL21 CodonPlus cells assessed as […] with constant Vmax of RNA using 250 uM ATP and varying concentration of yeast RNA as substrate preincubated with enzyme for 20 mins followed by substrate addition and measured after 1 to 7 hrs by Malachite green ATPase assay; settings: time 80-440 min
[18] = molecular target: T1, Eukaryotic initiation factor 4A-I; test: Displacement of FAM-[AG]8 from human recombinant N-terminal His6-tagged eIF4A expressed in Escherichia coli BL21 CodonPlus cells preincubated with enzyme for 20 mins followed by FAM-[AG]8 addition for 30 mins by fluorescence polarization assay; settings: time 50.0 min
[19] = molecular target: Eukaryotic initiation factor 4A-I (Homo sapiens, UniProt P60842, R110E); test: Inhibition of human recombinant N-terminal His6-tagged eIF4A R110E mutant expressed in Escherichia coli BL21 CodonPlus cells using ATP and yeast RNA as substrate preincubated with enzyme for 20 mins followed by susbtrate addition and measured after 4 hrs by Malachite green ATPase assay
Eukaryotic initiation factor 4A-I (Homo sapiens, UniProt P60842, R110E), sequence (P60842 2-406 R110E limits assumed): as the sequence (P60842 2-406 T158V limits assumed) above, with R109E, V157T counted along it

CCCCc1ccc(-c2ccc(-c3cc(C(=O)O)c4cc([N+](=O)[O-])ccc4n3)o2)cc1
Activity [1]: Active
inhibition (Reticulocyte [2]): Active
inhibition [3]: Active
Activity [4]: Dose-Dependent Effect
inhibition [5]: Active
inhibition [6]: Active
IC50 [7]: 6.58 µM
IC50 [8]: > 50 µM
IC50 [9]: > 50 µM
IC50 [10]: > 50 µM
inhibition [11]: inactive
IC50 [12]: > 50 µM
IC50 [13]: > 50 µM
inhibition (Reticulocyte [14]): inactive
IC50 [15]: > 50 µM
inhibition [16]: Active
EC50 (BJAB): 0.463 µM
inhibition [17]: Active
inhibition [18]: Active
IC50 [19]: > 50 µM
